Four molecules from ChEMBL document CHEMBL5608186, “Design, synthesis and structure-activity relationships of novel non-ketolides: 9-Oxime clarithromycin featured with seven-to thirteen-atom-length diamine linkers at 3-OH” (Eur J Med Chem, 2024) can be followed below.

Type in all cases: functional
For experiment [1], the system named is Streptococcus pneumoniae. As to the kind of experiment: Selectivity ratio of MBC for Streptococcus pneumoniae PU 09 harboring mef gene to MIC for Streptococcus pneumoniae PU 09 harboring mef gene.
The subject of experiment [2] is Staphylococcus aureus. As to the kind of experiment: Antibacterial activity against methicillin-resistant Staphylococcus aureus PU 20 harboring c-ermA gene incubated for 16 to 20 hrs by CLSI based broth microdilution method. Conditions: time 16-20 hrs. Background: Broth dilution looks for growth in wells or tubes with falling amounts of substance.
Experiment [3] deals with Haemophilus influenzae. The experiment is described as follows: Bactericidal activity against Haemophilus influenzae ATCC 49247 incubated for 16 to 20 hrs by CLSI based broth microdilution method. The conditions noted are these: time 16-20 hrs.
Experiment [4] relates to Streptococcus pyogenes. The experiment is described as follows: Selectivity ratio of MBC for Streptococcus pyogenes 01-968 harboring i-ermB gene to MIC for Streptococcus pyogenes 01-968 harboring i-ermB gene.
The subject of experiment [5] is Staphylococcus aureus. As to the kind of experiment: Antibacterial activity against methicillin-resistant Staphylococcus aureus PU 32 harboring i-ermA gene incubated for 16 to 20 hrs by CLSI based broth microdilution method. The conditions noted are these: time 16-20 hrs.
For experiment [6], the system named is Streptococcus pneumoniae. The experiment is described as follows: Selectivity ratio of MBC for Streptococcus pneumoniae ATCC 49619 to MIC for Streptococcus pneumoniae ATCC 49619.
The subject of experiment [7] is Staphylococcus aureus. As to the kind of experiment: Selectivity ratio of MBC for methicillin-resistant Staphylococcus aureus PU 32 harboring i-ermA gene to MIC for methicillin-resistant Staphylococcus aureus PU 32 harboring i-ermA gene.
In experiment [8] the test system is Streptococcus pyogenes. The experiment is described as follows: Antibacterial activity against Streptococcus pyogenes 01-968 harboring i-ermB gene incubated for 16 to 20 hrs by CLSI based broth microdilution method. The conditions noted are these: time 16-20 hrs.
For experiment [9], the system named is Streptococcus pneumoniae. As to the kind of experiment: Bactericidal activity against Streptococcus pneumoniae PU 09 harboring mef gene incubated for 16 to 20 hrs by CLSI based broth microdilution method. The conditions noted are these: time 16-20 hrs.
The subject of experiment [10] is Streptococcus pyogenes. The experiment is described as follows: Bactericidal activity against Streptococcus pyogenes 01-968 harboring i-ermB gene incubated for 16 to 20 hrs by CLSI based broth microdilution method. The conditions noted are these: time 16-20 hrs.
In experiment [11] the test system is Streptococcus pneumoniae. As to the kind of experiment: Antibacterial activity against Streptococcus pneumoniae 07P390 harboring c-erm gene incubated for 16 to 20 hrs by CLSI based broth microdilution method. The conditions noted are these: time 16-20 hrs.
For experiment [12], the system named is Haemophilus influenzae. The experiment is described as follows: Antibacterial activity against Haemophilus influenzae ATCC 49247 incubated for 16 to 20 hrs by CLSI based broth microdilution method. Conditions: time 16-20 hrs.
Experiment [13] relates to Streptococcus pneumoniae. As to the kind of experiment: Antibacterial activity against Streptococcus pneumoniae ATCC 49619 incubated for 16 to 20 hrs by CLSI based broth microdilution method. Conditions: time 16-20 hrs.
Experiment [14] has as its system Streptococcus pneumoniae. As to the kind of experiment: Bactericidal activity against Streptococcus pneumoniae ATCC 49619 incubated for 16 to 20 hrs by CLSI based broth microdilution method. The conditions noted are these: time 16-20 hrs.
Experiment [15] relates to Streptococcus pneumoniae. The experiment is described as follows: Selectivity ratio of MBC for Streptococcus pneumoniae 07P390 harboring c-erm gene to MIC for Streptococcus pneumoniae 07P390 harboring c-erm gene.
For experiment [16], the system named is Staphylococcus aureus. As to the kind of experiment: Bactericidal activity against methicillin-resistant Staphylococcus aureus PU 32 harboring i-ermA gene incubated for 16 to 20 hrs by CLSI based broth microdilution method. Conditions: time 16-20 hrs.
The subject of experiment [17] is Streptococcus pneumoniae. The experiment is described as follows: Bactericidal activity against Streptococcus pneumoniae 07P390 harboring c-erm gene incubated for 16 to 20 hrs by CLSI based broth microdilution method. Conditions: time 16-20 hrs.
The subject of experiment [18] is Haemophilus influenzae. The experiment is described as follows: Selectivity ratio of MBC for Haemophilus influenzae ATCC 49247 to MIC for Haemophilus influenzae ATCC 49247.
The subject of experiment [19] is Streptococcus pneumoniae. The experiment is described as follows: Antibacterial activity against Streptococcus pneumoniae PU 09 harboring mef gene incubated for 16 to 20 hrs by CLSI based broth microdilution method. The conditions noted are these: time 16-20 hrs.
Experiment [20] has as its system Staphylococcus aureus. The experiment is described as follows: Bactericidal activity against methicillin-resistant Staphylococcus aureus PU 20 harboring c-ermA gene incubated for 16 to 20 hrs by CLSI based broth microdilution method. The conditions noted are these: time 16-20 hrs.

Values after ≈ are worked out from the molar mass of the structure shown.

Regarding `CC[C@H]1OC(=O)[C@H](C)[C@@H](OC(=O)CCN2CCN(c3cc4c(cc3F)c(=O)c(C(=O)O)cn4C3CC3)CC2)[C@H](C)[C@@H](O[C@@H]2O[C@H](C)C[C@H](N(C)C)[C@H]2O)[C@](C)(OC)C[C@@H](C)/C(=N\OCC#Cc2cncc(C(N)=O)c2)[C@H](C)[C@H]2OC(=O)O[C@@]21C`, the Selectivity ratio is reported as 2 in experiment [1]; 2 in [4]; 2 in experiment [6]; over 8 in experiment [7]; over 8 in [15]; 1 in experiment [18]. In addition, the MIC in experiment [2] was over 256 µg/mL; in experiment [5], 8 µg/mL (≈ 6.81 µM); in experiment [8], 0.5 µg/mL (≈ 0.426 µM); in experiment [11] it was 4 µg/mL (≈ 3.41 µM); in experiment [12] it was 8 µg/mL (≈ 6.81 µM); in experiment [13], 0.25 µg/mL (≈ 0.213 µM). This molecule also had an MIC in experiment [19] of 0.5 µg/mL (≈ 0.426 µM). Also, the MBC in experiment [3] was 8 µg/mL (≈ 6.81 µM); in [9], 1 µg/mL (≈ 0.852 µM); in experiment [10], 1 µg/mL (≈ 0.852 µM); in experiment [14] it was 0.5 µg/mL (≈ 0.426 µM); in experiment [16], over 64 µg/mL; in experiment [17] it was over 32 µg/mL.

As for `CC[C@H]1OC(=O)[C@H](C)[C@@H](OC(=O)CCNCCCCNc2cc3c(cc2F)c(=O)c(C(=O)O)cn3C2CC2)[C@H](C)[C@@H](O[C@@H]2O[C@H](C)C[C@H](N(C)C)[C@H]2O)[C@](C)(OC)C[C@@H](C)/C(=N\OCC#Cc2cncc(C(=O)NC3CC3)c2)[C@H](C)[C@H]2OC(=O)O[C@@]21C`, the MIC is 128 µg/mL (≈ 105 µM) in experiment [2]; 32 µg/mL (≈ 26.3 µM) in experiment [5]; 0.06 µg/mL (≈ 0.0493 µM) in [8]; 0.03 µg/mL (≈ 0.0247 µM) in [11]; 8 µg/mL (≈ 6.58 µM) in experiment [12]; at most 0.008 µg/mL in experiment [13]. Moreover, the MIC in experiment [19] was at most 0.008 µg/mL. For the same molecule, the MBC in [3] was 8 µg/mL (≈ 6.58 µM); in experiment [9] it was 0.008 µg/mL (≈ 0.00658 µM); in experiment [10], over 0.5 µg/mL; in [14], 0.008 µg/mL (≈ 0.00658 µM); in [16] it was 64 µg/mL (≈ 52.6 µM); in experiment [20], over 256 µg/mL. This molecule yielded an MBC in experiment [17] of over 0.25 µg/mL. Moreover, the Selectivity ratio is on record as over 8 in experiment [4]; “>=1” in experiment [6]; 2 in experiment [7]; over 8 in [15]; 1 in experiment [18].

As for `CC[C@H]1OC(=O)[C@H](C)[C@@H](OC(=O)CCNCCCCNc2cc3c(cc2F)c(=O)c(C(=O)O)cn3C2CC2)[C@H](C)[C@@H](O[C@@H]2O[C@H](C)C[C@H](N(C)C)[C@H]2O)[C@](C)(OC)C[C@@H](C)/C(=N\OCC#Cc2cncc(C(N)=O)c2)[C@H](C)[C@H]2OC(=O)O[C@@]21C`, the MIC is 128 µg/mL (≈ 109 µM) in [2]; 64 µg/mL (≈ 54.4 µM) in experiment [5]; 0.06 µg/mL (≈ 0.051 µM) in [8]; 0.06 µg/mL (≈ 0.051 µM) in [11]; 2 µg/mL (≈ 1.7 µM) in [12]; at most 0.008 µg/mL in experiment [13]. This molecule also gave an MIC in experiment [19] of at most 0.008 µg/mL. Further, the MBC in [3] was 2 µg/mL (≈ 1.7 µM); in experiment [9] it was 0.008 µg/mL (≈ 0.0068 µM); in experiment [10], over 0.5 µg/mL; in [14], 0.008 µg/mL (≈ 0.0068 µM); in experiment [16] it was 128 µg/mL (≈ 109 µM); in experiment [20], over 256 µg/mL. Also, in experiment [17], the MBC was over 0.5 µg/mL. The Selectivity ratio in [4] is over 8; in experiment [6], “>=1”; in experiment [7] it was 2; in experiment [15] it was over 8; in experiment [18] it was 1.

As to `CC[C@H]1OC(=O)[C@H](C)C(=O)[C@H](C)[C@@H](O[C@@H]2O[C@H](C)C[C@H](N(C)C)[C@H]2O)[C@](C)(OC)C[C@@H](C)C(=O)[C@H](C)[C@H]2N(CCCCn3cnc(-c4cccnc4)c3)C(=O)O[C@]12C` [TELITHROMYCIN], the Selectivity ratio in [1] is given as 8; in [4] it was 4; in [6] it was 4; in experiment [7], 4; in experiment [15], 8. Besides, the MIC in experiment [2] was over 256 µg/mL; in experiment [8], 0.031 µg/mL (≈ 0.0382 µM); in experiment [11], 0.125 µg/mL (≈ 0.154 µM); in experiment [13], 0.031 µg/mL (≈ 0.0382 µM); in experiment [19], 0.5 µg/mL (≈ 0.616 µM). The MBC in [9] stood at 4 µg/mL (≈ 4.93 µM); in experiment [10] it was 0.125 µg/mL (≈ 0.154 µM); in experiment [14], 0.125 µg/mL (≈ 0.154 µM); in [16] it was 1 µg/mL (≈ 1.23 µM); in [17], 1 µg/mL (≈ 1.23 µM).
